Measured values reported in patent US6437138B1, “3-pyridyloxymethyl heterocyclic ether compounds useful in controlling chemical synaptic transmission” (priority 1996, dated 2002).
Where a name gives a salt, the structure may show the parent alone.

Compared with `CN1CC[C@H]1COc1cnc(Cl)c(-c2ccc(Cl)cc2)c1` (as salt: citrate) [Example 143, 6-Chloro-5-(4-chlorophenyl)-3-(1-methyl-2-(S)-azetidialmethoxy)pyridine Citrate], `CN1CCC[C@@H]1COc1cnc(Cl)c(-c2ccc(Cl)cc2)c1` (as salt: hydrochloride) [Example 76, 5-(4-Clhorophenyl)-6-chloro-3-(1-methyl-2-(R)-pyrrolidinylmethoxy)pyridine Hydrochloride] is higher in melting point: 78 to 79 °C for the first, 176 to 178 °C for the second.

First: Clc1ncc(OC[C@@H]2CCN2)cc1C=Cc1ccncc1 (as salt: citric acid salt) [Example 89, 5-(2-(4-Pyridinyl)ethenyl)-6-chloro-3-(2-(S)-azetidnylmethoxy)pyridine Citric Acid Salt]
Second: CN1CCC[C@H]1COc1cnc(Cl)c(C=Cc2ccncc2)c1 (as salt: hydrochloride) [Example 50, 5-(2-(4-Pyridinyl)ethenyl)-6-chloro-3-(1-methyl-(2-(S)-pyrrolidinylmethoxy)pyridine Dihydrochloride]
The melting point of the first is lower: 195 to 197 °C for the first, 218 to 222 °C for the second.

Compared with `CN1CCC[C@H]1COc1cncc(-c2ccco2)c1` (as salt: hydrochloride) [Example 5, 5-(2-Furanyl-3-(1-methyl-2-(S)-pyrrolidinylmethoxy)pyridine Dihydrochloride], `CN1CCC[C@H]1COc1cncc(-c2cccs2)c1` (as salt: hydrochloride) [Example 6, 5-(2-Thienyyl)-3-(1-methyl-2-(S)-pyrrolidinylmethoxy)pyridine Dihydrochloride] is higher in melting point: 189 to 191 °C for the first, 201 to 203 °C for the second.

Compared with `CN1CCC[C@H]1COc1cncc(C=Cc2ccncc2)c1` (as salt: hydrochloride) [Example 13, 5-(2-(4-Pyridinyl)ethenylyl)-3-((1-methyl-2-(S)-pyrrolidinylmethoxy)pyridine Triihydrochloride], `CN1CCC[C@H]1COc1cncc(CCc2ccncc2)c1` (as salt: hydrochloride) [Example 29, 5-(2-(4-Pyridinnyl)ethyl)-3-(1-methyl-2-(S)-pyrrolidinnylmethoxy)pyridine Trihydrochloride] is lower in melting point: 187 to 190 °C for the first, 148 to 150 °C for the second.

First: CN1CCC[C@H]1COc1cncc(C#CCCCC#N)c1 (as salt: hydrochloride) [Example 14, (5-(5-Cyano-1-pentynyl-3-(1-methyl-2-(S)-pyrrolidinylmethoxy)pyridine Dihydrochloride]
Second: CCCCCCCCC#Cc1cncc(OC[C@@H]2CCCN2C)c1.Cl.Cl [Example 9, 5-(1-Decynyl)-3-(1-methyl-2-(S)-pyrrolidinylmethoxy)pyridine Dihydrochloride]
The melting point of the first is higher: 165 to 167 °C for the first, 102 to 105 °C for the second.

Compared with `COC(=O)C=Cc1cncc(OC[C@@H]2CCCN2C)c1` (as salt: hydrochloride) [Example 16, 5-(2-(Methoxycarbonyl)ethenyl-3-(1-methyl-2-(S)-pyrrolidinylmethoxy)pyridine Dihydrochloride], `COC(=O)c1cncc(OC[C@@H]2CCCN2C)c1` (as salt: hydrochloride) [Example 27, 5-Methoxycarbonol-3-(1-methyl-2-(S)-pyrrolidinylmethoxy)pyridine Dihydrochloride] is higher in melting point: 128 to 130 °C for the first, 165 to 167 °C for the second.

First: CN1CCC[C@H]1COc1cncc(-c2ccc3ccccc3c2)c1 (as salt: hydrochloride) [Example 31, 5-(2-Naphthalenyl-3-(1-methyl-2-(S)-pyrrolidinylmethoxy)pyridine Dihydrochloride]
Second: CN1CCC[C@H]1COc1cncc(-c2cnc3ccccc3c2)c1 (as salt: hydrochloride) [Example 35, 5-(3-Ouinolinyl)-3-(1-methyl-2-(S)-pyrrolidinylmethoxy)pyridine Trihydrochloride]
The melting point of the first is higher: 248 to 251 °C for the first, 184 to 186 °C for the second.

First: CN1CCC[C@H]1COc1cncc(-c2cc(C(F)(F)F)cc(C(F)(F)F)c2)c1 (as salt: hydrochloride) [Example 37, 5-(3,5-bis(Trifluoromehyl)phenyl)-3-(1-methyl-2-(S)-pyrrolidinylmethoxy)pyridine Dihydrochloride]
Second: CN1CCC[C@H]1COc1cncc(-c2ccc(F)c(Cl)c2)c1 (as salt: hydrochloride) [Example 42, 5-(3-Chloro-4-fluorolphenyl)-3-(1-methyl-2-(S)-pyrrolidinylmethoxy)pyridine Dihydrochloride]
The melting point of the first is lower: 68 to 70 °C for the first, 202 to 204 °C for the second.

First: CCCCCCC#Cc1cncc(OC[C@@H]2CCN2)c1 (as salt: hydrochloride) [Example 63, 5-Octynyl-3-(2-(S)-azetidinylmethoxy)pyridine Dihydrochloride]
Second: CC(C)(C)C=CC=Cc1cncc(OC[C@@H]2CCN2)c1 (as salt: hydrochloride) [Example 163, 3-(2-(S)-Azetidinylmethoxy)-5-(5,5-dimethyl-1,3-hexadiene)pyridine Dihydrochloride]
The melting point of the first is lower: 88 to 90 °C for the first, 142 to 144 °C for the second.

First: CC(C)(C)C=CC=Cc1cc(OC[C@@H]2CCCN2)cnc1Cl (as salt: hydrochloride) [Example 148, 6-Chloro-5-(5,5dimethyl-1,3-hexadienyl)-3-(2-(S)-pyrrilidinylmethoxy)pyridine Dihydrochloride]
Second: CC(C)(C)C=CC=Cc1cc(OC[C@H]2CCCN2)cnc1Cl.Cl.Cl [Example 77, 5-(5,5-Dimethyl-1,3-hexadienyl)-6-chloro-3-(2-(R)-pyrrolidinylmethoxy)pyridine Dihydrochloride]
The melting point of the first is higher: 206 to 208 °C for the first, 190 to 192 °C for the second.

First: Clc1ncc(OC[C@@H]2CCCN2)cc1-c1cccs1 (as salt: hydrochloride) [Example 152, 6-Chloro-3-(2-(S)-pyrrolidinolmethoxy)-5-(2-thienyl)pyridine Dihydrochloride]
Second: Clc1ncc(OC[C@H]2CCCN2)cc1-c1ccccc1 (as salt: salt) [Example 70]
The melting point of the first is higher: 208 to 210 °C for the first, 178 to 180 °C for the second.

First: CN1CC[C@H]1COc1cncc(C=CC=CC(C)(C)C)c1 (as salt: hydrochloride) [Example 166, 5-(5,5-Dimethyl-1,3-hexadiene)-3-(1-methyl-2-(S)-azetidinylmethoxy)pyridine Dihydrochloride]
Second: CC(C)(C)C=CC=Cc1cncc(OC[C@H]2CCCN2)c1.Cl.Cl [Example 138, 5-(5,5-Dimethyl-1,3-hexadienyl)-3-(2-(R)-pyrrolidinylmethoxy)pyridine Dihydrochloride]
The melting point of the first is lower: 143 to 145 °C for the first, 145 to 147 °C for the second.

First: C#Cc1cc(OC[C@@H]2CCCN2)cnc1Cl (as salt: hydrochloride) [Example 194, 6-Chloro-5-(ethynyl-3-(2-(S)-pyrrolidinylmethoxy)pyridine Hydrochloride]
Second: CC(=O)c1cc(OC[C@@H]2CCCN2)cnc1Cl.Cl.Cl [Example 32, 5-Acetyl-6-chloro-3-(2-(S)-pyrrolidinylmethoxy)pyridine Dihydrochloride]
The melting point of the first is higher: 214 to 216 °C for the first, 173 to 176 °C for the second.

First: COCCOc1cncc(OC[C@@H]2CCCN2C)c1 (as salt: hydrochloride) [Example 198, 5-Methoxyethoxy-3-(1-methyl-(2S)-pyrrolidinylmethoxy)pyridine Dihydrochloride]
Second: C=Cc1cncc(OC[C@@H]2CCCN2C)c1.Cl.Cl [Example 8, 5-Ethenyl-3-(1-methyl-2-(S)-pyrrolidinylmethoxy)pyridine Dihydrochloride]
The melting point of the first is higher: 196 to 197 °C for the first, 152 to 156 °C for the second.

First: Nc1cccc(-c2cncc(OC[C@@H]3CCN3)c2)c1 (as salt: salt) [Example 65, 5-(3-Aminophenyl)-3-(2-(S)-azetidinylmethoxy)pyridine Hidrochloride]
Second: Cl.Cl.Cl.Nc1cccc(-c2cncc(OC[C@H]3CCCN3)c2)c1 [Example 88, 5-(3-Aminophenyl)-3-(2-(R)-pyrrolidinylmethoxy)pyridine Trihydrochloride]
The melting point of the first is lower: 85 to 87 °C for the first, 240 to 242 °C for the second.

First: Clc1ncc(OC[C@@H]2CCN2)cc1-c1ccccc1 (as salt: salt) [Example 67, 5-Phenyl-6-chloro-3-(2-(S)-azetidinylmethoxy)pyridine Hidrochloride]
Second: CN1CC[C@H]1COc1cnc(Cl)c(-c2ccccc2)c1 (as salt: salt) [Example 68, 5-Phenyl-6-chloro-3-(1-methyl-2-(S)-azetidinylmethoxy)pyridine Hidrochloride]
The melting point of the first is lower: 148 to 150 °C for the first, 187 to 188 °C for the second.

First: C=Cc1cc(OC[C@@H]2CCN2C)cnc1C (as salt: salt) [Example 196, 5-Ethenyl-6-methyl-3-(1-methyl-2-(S)-azetidinylmethoxy)pyridine]
Second: C=Cc1cc(OC[C@@H]2CCN2C)cnc1F (hydrate or solvate) [Example 204, 5-Ethenyl-6-fluoro-3-(1-methyl-2-(S)-azetidinylmethoxy)pyridine]
The melting point of the first is lower: 140 to 143 °C for the first, 156 to 158 °C for the second.

First: Cl.Cl.Clc1ccc(-c2cncc(OC[C@@H]3CCCN3)c2)cc1 [Example 20, 5-(4-chlorophenyl)-3-(2-(S)-pyrrolidinylmethoxy)pyridine Dihydrochloride]
Second: CN1CCC[C@@H]1COc1cnc(Cl)c(CCc2ccncc2)c1.Cl.Cl.Cl [Example 83, 5-(2-(4-Pyridinyl)ethyl)-6-chloro-3-(1-methyl-2-(R)-pyrrolidinylmethoxy)pyridine Trihydrochloride]
The melting point of the first is lower: 180 to 182 °C for the first, 236 to 238 °C for the second.

For `CN1CCC[C@@H]1COc1cnc(Cl)c(C=Cc2ccncc2)c1` (as salt: hydrochloride) [Example 82, 5-(2-(4-Pyridinnyl)ethenyl)-6-chloro-3-(1-methyl-2-(R)-pyrrolidinylmethoxy)pyridine Dihydrochloride], the melting point was 220 to 222 °C (dec.).
In the case of `CN1CCC[C@@H]1COc1cnc(Cl)c(C=CC=CC(C)(C)C)c1.Cl.Cl` [Example 78, 5-(5,5-Dimethyl-1,3-hexadienyl)-6-chloro-3-(1-methyl-2-(R)-pyrrolidinylmethoxy)pyridine Dihydrochloride], the melting point is reported as 194 °C (dec.).
In the case of `CCCCCCC#Cc1cc(OC[C@H]2CCCN2C)cnc1Cl.Cl.Cl` [Example 80, 5-(1-Octynyl)-6-chloro-3-(1-methyl-2-(R)-pyrrolidinylmethoxy)pyridine Dihydrochloride], the melting point is reported as 114 to 116 °C (dec.).
